Experimental data as given in paper PMC9645390, “Amphiphilic stilbene derivatives attenuate the neurotoxicity of soluble Aβ42 oligomers by controlling their interactions with cell membranes” (Chemical Science, 2022).

What was measured:
[1] = Log D by octanol-PBS partition assay; type: physicochemical; conditions: pH 7.4, fluorescence readout
Method: In order to confirm that the compounds can also bind to native Aβ species, brain sections collected from 9-month-old 5xFAD transgenic mice have been employed in the fluorescence imaging studies. […] The brain sections were first incubated with our compounds, followed by Congo Red (CR), which is a well-established fluorescent probe that can bind to Aβ plaques.[34] The treated brain sections were then imaged using fluorescence microscope. […] Immunostaining with the CF594-conjugated HJ 3.4 antibody (CF594-HJ3.4) was also performed to confirm that these six compounds can bind to Aβ species specifically in the brain sections (Fig. 5). Moreover, the log D values of the compounds were also measured by octanol-PBS partition assays.[35] […]
The Log D value was measured following a published procedure using slight modifications.4 In general, compounds in 0.5 mL octanol was subjected to partition with 0.5 mL octanol-saturated
PBS. The whole mixture was stirred vigorously for 5 min, and centrifuged at 2,000 rpm for 5 min.
The top octanol layer was separated for later fluorescence measurement. The remaining PBS layer was partitioned with 0.5 mL PBS-saturated octanol, and the second top octanol layer was then separated after vigorous stirring and centrifuging at 2,000 rpm for another 5 min. The two octanol layers’ fluorescence spectra were recorded. The log D value was calculated by the fluorescence intensity ratio at the compounds’ emission wavelength for the above two octanol extractions. […]

Aβ42 oligomers = biological target: T1, Aβ42 oligomers (Homo sapiens, UniProt P05067); experiment: Fluorescence saturation binding assay with Aβ42 oligomers; conditions: for Kd / binding ratio, Oligomers: Aβ42 oligomers; for Kd: 10 mM PBS pH 7.4, one site-specific binding model; for binding ratio, Oligomers: from cross point between plateau and initial slope; for binding preference oligomers vs fibrils (from Kd values): lower Kd for Aβ oligomers than Aβ fibrils
T1 construct: 1 mg of commercial Aβ42 monomer powder (from GL biochem) was dissolved in 1; purchased GL biochem
T1 sequence (P05067 672-713 limits assumed): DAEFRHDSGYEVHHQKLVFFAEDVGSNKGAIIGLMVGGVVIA
Method: (§1) Fig. 3 Binding constant measurements of ZY-5-OMe (left), ZY-5-MT (middle), ZY-5-DT (right) with Aβ42 fibrils (top), and oligomers (bottom). The measurements were performed in 10 mM phosphate buffered saline (PBS), pH 7.4. The Kd curves were fitted in GraphPad Prism with one site-specific binding model. Equation: Y = Bmax × X/(Kd + X). [Aβ42 fibrils] = [Aβ42 oligomers] = 5 μM.
(§2) Preparation of the Aβ42 Fibrils and Aβ42 Oligomers
(§3) Aβ42 fibrils: 1 mg of commercial Aβ42 monomer powder (from GL biochem) was dissolved in 1
(§4) mL 1,1,1,3,3,3-hexafluoro-2-propanol (HFIP) at room temperature and incubated for 1h. The
(§5) resulting solution was divided equally into two Eppendorf tubes. The solution in each Eppendorf
(§6) tube containing 0.5 mg Aβ42 monomer was then evaporated overnight and dried by vacuum
(§7) centrifuge to generate monomeric films. 100 μM Aβ42 fibrils solution was prepared by dissolving
(§8) the 0.5 mg monomeric films in 1.1 mL PBS buffer (with final DMSO concentration less than 1%)
(§9) and stiring at 37 °C for 3 days.
(§10) Aβ42 oligomers: The 0.5 mg monomeric films were dissolved in 1.1 mL PBS buffer (with final
(§11) DMSO concentration less than 1%) and incubated at 4 °C overnight. The resulting solution was
(§12) then centrifuged at 3000 rpm for 15 mins to remove the insoluble aggregates. The clear supernatant
(§13) was then used for the following experiments. […]
(§14) In Vitro Saturation Binding Studies with Aβ42 Fibrils and Aβ42 Oligomers
(§15) To a solution of increasing concentrations of compounds, a fixed concentration of the generated
(§16) aggregated Aβ42 fibrils or Aβ42 oligomers solutions (5 to 15 μM) was added to yield a total volume
(§17) of 100 μL. Nonspecific binding was determined without compounds. The mixture was incubated
(§18) for 15 min at room temperature. All fluorescence data were obtained on a SpectraMax M2e plate
(§19) reader (Molecular Devices).

[2] = Alamar Blue cytotoxicity assay in N2a cells; type: cell-based, mouse; conditions: mouse, N2a (Neuro2A) neuroblastoma cells, up to 10 μM, 40 h, read-out: cell viability
Method: After confirming these amphiphilic compounds can bind to Aβ species both in vitro and ex vivo, we next investigated whether these compounds could attenuate the toxicity of the Cu–Aβ species, as the Cu^2+ ions were reported to promote the formation of neurotoxic soluble Aβ42 oligomers.[45,46] Firstly, the Alamar Blue cell viability assay was used to measure the cytotoxicity of the compounds at different concentrations ranging from 20 μM to 2 μM in mouse neuroblastoma N2a cells (Fig. 8). […] Considering its high binding affinity to both Aβ fibrils and oligomers, we also further tested its ability to alleviate Cu^2+–Aβ42-induced toxicity. […] The underlying mechanism is unclear, but we propose that these compounds might perform similarly to the toxic oligomers that bind to some cell membrane receptors or insert into the membrane lipids to form porous channels.
Alamar Blue assay was chosen for the cytotoxicity studies.3 Mouse neuroblastoma Neuro2A (N2A) cells were grown with DMEM/10% FBS in a petri dish at 37 °C in a humidified atmosphere with 5% CO2. Then N2A cells were seeded in a 96-well plate (1.0 × 10^4/well). After 24 h incubation, cell media was changed to DMEM/N-2, and N2A cells were incubated for another 1 h. Then the cells were treated with different concentrations of compounds for 40 h, Alamar Blue solution (10 μL) was added, and the cells were incubated for another 90 min at 37 °C. The fluorescence intensity of each well was measured at 590 nm (excitation wavelength = 560 nm).
For the Cu2+-Aβ-induced toxicity studies, cells were treated monomeric Aβ42, Cu2+, monomeric Aβ42 + Cu2+, and monomeric Aβ42 + Cu2+ + compounds, monomeric Aβ42 + Cu2+ + copper chelators (Me2HTACN or Me3TACN), respectively. After 40 h incubation, Alamar Blue solution (10 μL) was added, and the cells were incubated for another 90 min at 37 °C. The fluorescence intensity of each well was measured at 590 nm (excitation wavelength = 560 nm). […]

Aβ42 fibrils = biological target: T2, Aβ42 fibrils (Homo sapiens, UniProt P05067); experiment: Fluorescence saturation binding assay with Aβ42 fibrils; conditions: Aβ42 fibrils; for Kd: 10 mM PBS pH 7.4, one site-specific binding model, read-out: Kd, Fibrils; for binding ratio, Fibrils: from cross point between plateau and initial slope
T2 construct: 1 mg of commercial Aβ42 monomer powder (from GL biochem) was dissolved in 1; purchased GL biochem
T2 sequence (P05067 672-713 limits assumed): as above
Method: as §1, §2, §3, §4, §5, §6, §7, §8, §9, §10, §11, §12, §13, §14, §15, §16, §17, §18, §19

COc1cc(/C=C/c2ccc(-c3ccc(N(C)C)cc3)s2)cc(CN2CCN(C)CCN(C)CC2)c1O [ZY-5-OMe]
logD [1]: 1.18 ± 0.046
Kd (Aβ42 oligomers): 1.04 µM
binding ratio, Oligomers (Aβ42 oligomers): 4.0
viability at 40 h [2]: > 80%
Kd (Aβ42 fibrils): 0.68 µM
binding ratio, Fibrils (Aβ42 fibrils): 5.6

CN1CCN(C)CCN(Cc2cc(-c3ccc(/C=C/c4ccc(N(C)C)cc4)s3)ccc2O)CC1 [ZY-12-MT]
logD [1]: 0.83 ± 0.035
Kd (Aβ42 oligomers): 6.27 µM
binding ratio, Oligomers (Aβ42 oligomers): 1.0
viability at 40 h [2]: > 80%
Kd (Aβ42 fibrils): 4.19 µM
binding ratio, Fibrils (Aβ42 fibrils): 1.3

CN1CCN(C)CCN(Cc2cc(/C=C/c3ccc(-c4ccc(C=O)cc4)s3)ccc2O)CC1 [ZY-15-MT]
logD [1]: 1.11 ± 0.021
Kd (Aβ42 oligomers): 2.03 µM
binding ratio, Oligomers (Aβ42 oligomers): 2.5
viability at 40 h [2]: > 80%
Kd (Aβ42 fibrils): 0.53 µM
binding ratio, Fibrils (Aβ42 fibrils): 10.0

COc1cc(/C=C/c2ccc(-c3ccc(C=O)cc3)s2)cc(CN2CCN(C)CCN(C)CC2)c1O [ZY-15-OMe]
logD [1]: 1.053 ± 0.002
Kd (Aβ42 oligomers): 0.47 µM
binding ratio, Oligomers (Aβ42 oligomers): 8.1
binding preference oligomers vs fibrils (from Kd values) (Aβ42 oligomers): higher binding affinity to oligomers over fibrils
viability at 40 h [2]: > 80%
Kd (Aβ42 fibrils): 1.24 µM
binding ratio, Fibrils (Aβ42 fibrils): 3.0

COc1cc(OC)cc(-c2ccc(/C=C/c3cc(CN4CCN(C)CCN(C)CC4)c(O)c(CN4CCN(C)CCN(C)CC4)c3)cc2)c1 [ZY-17-DT]
logD [1]: 0.606 ± 0.032
Kd (Aβ42 oligomers): 1.03 µM
binding ratio, Oligomers (Aβ42 oligomers): 33.3
binding preference oligomers vs fibrils (from Kd values) (Aβ42 oligomers): higher binding affinity to oligomers over fibrils
Kd (Aβ42 fibrils): 2.25 µM
binding ratio, Fibrils (Aβ42 fibrils): 1.1

COc1cc(OC)cc(-c2ccc(/C=C/c3cc(CN4CCN(C)CCN(C)CC4)c(O)c(OC)c3)cc2)c1 [ZY-17-OMe]
logD [1]: 0.732 ± 0.019
Kd (Aβ42 oligomers): 0.12 µM
binding ratio, Oligomers (Aβ42 oligomers): 46.7
binding preference oligomers vs fibrils (from Kd values) (Aβ42 oligomers): higher binding affinity to oligomers over fibrils
Kd (Aβ42 fibrils): 0.18 µM
binding ratio, Fibrils (Aβ42 fibrils): 21.9
